Experimental data published in patent US8449788B2, “Leather finishing compositions comprising dioxolane derivatives” (Rhodia Poliamida e Especialidades Ltda, priority 2009, dated 2013).
Where two headings read alike, the source gives them in different places.

How the values were obtained:
[1] = cited from earlier work
[2] = cited from earlier work; remark: listed apart in the source
[3] = system: mouse; settings: cited from earlier work
[4] = Solubilization of a dye-metal complex; type: physicochemical
Experimental: Solketal was tested to solubilize a dye-metal complex.

[5] = cited from earlier work; remark: listed apart in the source

**Q.** What does the source list for `CC1(C)OCC(CO)O1` (stereo not drawn) [Solketal, 2,2-dimethyl-1,3-dioxolane-4-methanol]?
**A.** Acute oral toxicity [1]: 7.00; Solubility in water at 20° C. [2]: miscible; LD50 (oral/mouse mg/kg) [3]: 7000 mg/kg; Performance as solvent for dye-metal complex [4]: good compared to diacetone alcohol and methoxy propanol, and less effective compared to ethyldiglycol, ethylglycol, butyldiglycol and butylglycol; Performance as solvent for dye-metal complex ([4]; listed as solketal): average; Reversion in slightly acid pH (biodegradability) [5]: may revert into acetone and glycerin
